Earlier results, collected in patent US6183992A, “Method for mass production of antimicrobial peptide” (Samyang Genex Corporation, priority 1997, dated 2001).
Ends that are not written are not given here.

conditions: Table 1, excerpted from Peptide Science, Vol 37, 105-122 (1995)

| Compound | pI |
| --- | --- |
| CC[C@H](C)[C@H](N)C(=O)N[C@@H](CC(C)C)C(=O)N1CCC[C@H]1C(=O)N[C@@H](Cc1c[nH]c2ccccc12)C(=O)N[C@@H](CCCCN)C(=O)N[C@@H](Cc1c[nH]c2ccccc12)C(=O)N1CCC[C@H]1C(=O)N[C@@H](Cc1c[nH]c2ccccc12)C(=O)N[C@@H](Cc1c[nH]c2ccccc12)C(=O)N1CCC[C@H]1C(=O)N[C@@H](Cc1c[nH]c2ccccc12)C(=O)N[C@@H](CCCNC(=N)N)C(=O)N[C@@H](CCCNC(=N)N)C(N)=O [Indolicidin] | 12.51 |
| CC[C@H](C)[C@H](NC(=O)CN)C(=O)NCC(=O)N[C@@H](C)C(=O)N[C@H](C(=O)N[C@@H](CC(C)C)C(=O)N[C@@H](CCCCN)C(=O)N[C@H](C(=O)N[C@@H](CC(C)C)C(=O)N[C@H](C(=O)N[C@H](C(=O)NCC(=O)N[C@@H](CC(C)C)C(=O)N1CCC[C@H]1C(=O)N[C@@H](C)C(=O)N[C@@H](CC(C)C)C(=O)N[C@H](C(=O)N[C@@H](CO)C(=O)N[C@@H](Cc1c[nH]c2ccccc12)C(=O)N[C@H](C(=O)N[C@@H](CCCCN)C(=O)N[C@@H](CCCNC(=N)N)C(=O)N[C@@H](CCCCN)C(=O)N[C@@H](CCCNC(=N)N)C(=O)N[C@@H](CCC(N)=O)C(=O)N[C@@H](CCC(N)=O)C(N)=O)[C@@H](C)CC)[C@@H](C)CC)[C@@H](C)O)[C@@H](C)O)C(C)C)C(C)C [Melittin] | 12.53 |
| Apidaecin I | 12.21 |
| Bombinin | 10.34 |
| Cercropin A [Ceropin A] | 10.89 |
| GKPRPYSPRPTSHPRPIRV [Drosocin] | 12.22 |
| HNP-I [HNP1] | 8.28 |
| Magainin (MSI-344) | 11.41 |
| Tachyplesin I | 10.01 |
